Activity calls are given as the source filed them. The calls are words filed in the database; no cut-off is given here.
Assays:
RAW264.7 [1] = assay: Cytotoxicity against mouse RAW264.7 cells assessed as cell viability at 50 uM after 18 hrs by MTT assay in presence of LPS; assay type: cell-based; conditions: raw264.7, 18 h
RAW264.7 [2] = assay: Antiinflammatory activity in mouse RAW264.7 cells assessed as inhibition of LPS-induced nitric oxide production at 0.4 uM after 18 hrs by griess reaction analysis; assay type: functional, cell-based
RAW264.7 [3] = assay: Antiinflammatory activity in mouse RAW264.7 cells assessed as inhibition of LPS-induced nitric oxide production after 18 hrs by griess reaction analysis; assay type: functional, cell-based; conditions: RAW264.7, 18 h
RAW264.7 [4] = assay: Antiinflammatory activity in mouse RAW264.7 cells assessed as inhibition of LPS-induced nitric oxide production at 10 uM after 18 hrs by griess reaction analysis; assay type: functional
RAW264.7 [5] = assay: Antiinflammatory activity in mouse RAW264.7 cells assessed as inhibition of LPS-induced TNF-alpha secretion after 18 hrs by sandwich ELISA; assay type: functional, cell-based; conditions: RAW264.7, 18 h
RAW264.7 [6] = assay: Antiinflammatory activity in mouse RAW264.7 cells assessed as inhibition of LPS-induced TNF-alpha secretion at 0.4 uM after 18 hrs by sandwich ELISA; assay type: functional, cell-based
RAW264.7 [7] = assay: Antiinflammatory activity in mouse RAW264.7 cells assessed as inhibition of LPS-induced TNF-alpha secretion at 10 uM after 18 hrs by sandwich ELISA; assay type: functional; conditions: for inhibition at 10 µM: RAW264.7, 18 h
[8] = target: T1, Bifunctional epoxide hydrolase 2 (Homo sapiens) (UniProt P34913); assay: Inhibition of sEH (unknown origin) assessed as substrate PHOME hydrolysis at 25 uM after 1 hr by fluorescence method
T1 sequence (whole entry): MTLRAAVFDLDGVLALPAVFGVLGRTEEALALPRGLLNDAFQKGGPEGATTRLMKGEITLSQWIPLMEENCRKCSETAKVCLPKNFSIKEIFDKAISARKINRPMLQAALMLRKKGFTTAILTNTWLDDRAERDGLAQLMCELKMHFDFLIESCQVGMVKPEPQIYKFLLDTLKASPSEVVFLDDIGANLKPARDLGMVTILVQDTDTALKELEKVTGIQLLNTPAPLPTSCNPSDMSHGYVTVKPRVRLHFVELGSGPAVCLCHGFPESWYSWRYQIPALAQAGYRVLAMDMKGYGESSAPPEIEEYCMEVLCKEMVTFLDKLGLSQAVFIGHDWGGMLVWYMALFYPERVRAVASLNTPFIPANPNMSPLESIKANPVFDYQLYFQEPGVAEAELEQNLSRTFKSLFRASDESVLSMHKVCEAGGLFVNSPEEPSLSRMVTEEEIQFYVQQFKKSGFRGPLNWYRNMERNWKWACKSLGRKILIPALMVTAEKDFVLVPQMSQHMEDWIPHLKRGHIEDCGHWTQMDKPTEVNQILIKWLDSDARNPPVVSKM

[9] = target: T2, Bifunctional epoxide hydrolase 2 (Homo sapiens, UniProt P34913); assay: Inhibition of sEH (unknown origin) assessed as substrate PHOME hydrolysis after 1 hr by fluorescence method
T2 sequence (P34913 whole entry): T1 sequence (whole entry)

Row | SMILES | Activity (RAW264.7 [1]) | inhibition (RAW264.7 [2]) | IC50 (RAW264.7 [3]) | inhibition (RAW264.7 [4]) | IC50 (RAW264.7 [5]) | inhibition (RAW264.7 [6]) | inhibition at 10 µM (RAW264.7 [7]) | inhibition [8] | IC50 [9] | inhibition (RAW264.7 [7]) | inhibition at 10 µM (RAW264.7 [4]; RAW264.7, 18 h)
1 | OC[C@H]1O[C@@H](OCc2ccccc2)[C@H](O)[C@@H]1O | Non-toxic | inactive | 24.5 µM | Active | 18.4 µM | inactive | 21.5% |  |  |  | 
2 | C[C@@H]1O[C@@H](OC[C@H]2O[C@@H](Oc3c(-c4ccc(O)c(O)c4)oc4cc(O)cc(O)c4c3=O)[C@H](O)[C@@H](O)[C@@H]2O)[C@H](O)[C@H](O)[C@H]1O [RUTIN] | Non-toxic | inactive | 27.5 µM | Active | 44.5 µM | inactive |  | > 40% | 24.3 µM | Active | 
3 | O=C(O[C@H]1[C@H](Oc2c(-c3ccc(O)cc3)oc3cc(O)cc(O)c3c2=O)O[C@H](CO)[C@@H](O)[C@@H]1OC(=O)c1cc(O)c(O)c(O)c1)c1cc(O)c(O)c(O)c1 | Non-toxic | inactive |  | inactive |  | inactive |  | > 40% | 23.8 µM | Active | 
4 | O=C(O[C@H]1[C@H](Oc2c(-c3ccc(O)cc3)oc3cc(O)cc(O)c3c2=O)O[C@H](CO)[C@@H](O)[C@@H]1O)c1cc(O)c(O)c(O)c1 | Non-toxic | inactive |  | inactive | 17.2 µM | inactive | 21.5% | > 40% | 27.4 µM |  | 
5 | O=C(O[C@@H]1O[C@@H]2COC(=O)c3cc(O)c(O)c(O)c3-c3c(cc(O)c(O)c3O)C(=O)O[C@H]([C@H]1O)[C@@H]2O)c1cc(O)c(O)c(O)c1 [CORILAGIN] | Non-toxic | inactive | 25.1 µM | Active | 38.5 µM | inactive |  | > 40% |  | Active | 
6 | Cc1ccc(-c2cc(C(F)(F)F)nn2-c2ccc(S(N)(=O)=O)cc2)cc1 [CELECOXIB] |  |  | 1.84 µM |  | 1.28 µM |  |  |  |  |  | 
7 | COC/C=C/c1ccc(O[C@@H]2O[C@H](CO)[C@@H](O)[C@H](O)[C@H]2O)c(OC)c1 | Non-toxic | inactive | 19.1 µM |  | 16.5 µM | inactive | 21.5% | < 40% |  |  | 32.9%
8 | CC1=CC[C@@H](C(C)(C)O[C@@H]2O[C@H](CO[C@@H]3OC[C@H](O)[C@H](O)[C@H]3O)[C@@H](O)[C@H](O)[C@H]2O)CC1 | Non-toxic | inactive |  | Active | > 50 µM | inactive |  | < 40% |  | Active | 
9 | O=c1c(O[C@@H]2O[C@H](CO)[C@@H](O)[C@H](O)[C@H]2O)c(-c2ccc(O)c(O)c2)oc2cc(O)cc(O)c12 [ISOQUERCETIN] | Non-toxic | inactive |  | inactive | > 50 µM | inactive |  | > 40% | 28.4 µM | Active | 
10 | COC(=O)Cc1c2c3c(cc(O)c(O)c3oc1=O)C(=O)O[C@@H]2C(=O)OC | Non-toxic | inactive | 19.5 µM | Active |  | inactive |  |  |  | Active | 
11 | O=c1c(O)c(-c2ccc(O)c(O)c2)oc2cc(O)cc(O)c12 [QUERCETIN] | Non-toxic | inactive | > 50 µM | inactive |  | inactive |  | > 40% | 33.5 µM | Active | 
12 | COC/C=C/c1ccc(O[C@@H](CO)CO[C@@H]2O[C@H](CO)[C@@H](O)[C@H](O)[C@H]2O)c(OC)c1 | Non-toxic | inactive | 28.6 µM | Active | 27.2 µM | inactive |  | < 40% |  | Active | 

From ChEMBL document CHEMBL3232869, “Anti-inflammatory components of Euphorbia humifusa Willd” (Bioorg Med Chem Lett, 2014)
